Experimental data as given in ChEMBL document CHEMBL1139487, “Discovery of corticotropin releasing factor 2 receptor selective sauvagine analogues for treatment of skeletal muscle atrophy” (J Med Chem, 2005).

Experiments:
[1] = target: T1, Corticotropin-releasing factor receptor 1 (Mus musculus, UniProt P35347); assay: In vitro effective concentration for mouse corticotropin releasing factor 1 receptor
T1 sequence (P35347 whole entry): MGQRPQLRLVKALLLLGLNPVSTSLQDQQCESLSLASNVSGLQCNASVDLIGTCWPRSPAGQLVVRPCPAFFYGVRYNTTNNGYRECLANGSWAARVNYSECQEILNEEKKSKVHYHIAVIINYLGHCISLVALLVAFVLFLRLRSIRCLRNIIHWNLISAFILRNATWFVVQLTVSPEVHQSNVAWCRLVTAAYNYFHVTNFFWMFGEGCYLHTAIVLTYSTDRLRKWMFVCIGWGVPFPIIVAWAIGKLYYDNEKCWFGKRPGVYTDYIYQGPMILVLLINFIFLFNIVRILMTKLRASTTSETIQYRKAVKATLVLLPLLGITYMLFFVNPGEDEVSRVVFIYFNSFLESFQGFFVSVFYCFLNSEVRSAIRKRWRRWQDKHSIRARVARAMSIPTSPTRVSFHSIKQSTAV

[2] = target: Corticotropin-releasing factor receptor 2 (Mus musculus, UniProt Q60748); assay: In vitro effective concentration for mouse corticotropin releasing factor 2 receptor
Sequence of Corticotropin-releasing factor receptor 2 (Q60748 whole entry): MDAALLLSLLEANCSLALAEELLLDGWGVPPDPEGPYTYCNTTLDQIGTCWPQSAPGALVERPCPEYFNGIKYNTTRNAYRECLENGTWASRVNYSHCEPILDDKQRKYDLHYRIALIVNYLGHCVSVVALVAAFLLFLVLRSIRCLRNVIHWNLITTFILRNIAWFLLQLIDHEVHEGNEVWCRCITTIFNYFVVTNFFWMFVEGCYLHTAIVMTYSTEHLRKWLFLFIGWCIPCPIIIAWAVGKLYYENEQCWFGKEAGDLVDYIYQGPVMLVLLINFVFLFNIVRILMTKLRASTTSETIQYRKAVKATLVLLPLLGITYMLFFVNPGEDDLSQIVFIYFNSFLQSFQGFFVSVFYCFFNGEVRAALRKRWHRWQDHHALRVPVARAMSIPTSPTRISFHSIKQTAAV

| Compound | EC50 [1] [nM] | EC50 [2] [nM] |
| --- | --- | --- |
| CC[C@H](C)[C@H](NC(=O)[C@@H](NC(=O)[C@H](CC(=O)O)NC(=O)[C@H](CC(C)C)NC(=O)[C@H](CC(C)C)NC(=O)[C@H](CC(C)C)NC(=O)[C@H](CCCNC(=N)N)NC(=O)[C@H](CC(N)=O)NC(=O)[C@H](CC(N)=O)NC(=O)[C@H](C)NC(=O)[C@H](C)NC(=O)[C@H](CCC(N)=O)NC(=O)[C@H](CCC(N)=O)NC(=O)[C@H](CCCCN)NC(=O)[C@H](CCC(=O)O)NC(=O)[C@H](CCCCN)NC(=O)[C@H](CCC(=O)O)NC(=O)[C@H](CCC(N)=O)NC(=O)[C@H](CCCCN)NC(=O)[C@H](CCC(=O)O)NC(=O)[C@@H](NC(=O)[C@H](CCC(=O)O)NC(=O)[C@@H](NC(=O)[C@H](CCSC)NC(=O)[C@H](CCCCN)NC(=O)[C@H](CCCNC(=N)N)NC(=O)[C@H](CC(C)C)NC(=O)[C@H](CC(C)C)NC(=O)[C@H](CCC(N)=O)NC(=O)[C@H](Cc1ccc(O)cc1)NC(=O)[C@@H]1CCCN1C(=O)[C@H](CC(C)C)NC(=O)[C@H](CC(=O)O)NC(=O)[C@@H](NC(=O)[C@H](CO)NC(=O)[C@@H](NC(=O)[C@@H]1CCCN1C(=O)[C@@H]1CCCN1C(=O)CNC(=O)[C@@H]1CCC(=O)N1)[C@@H](C)CC)[C@@H](C)CC)[C@@H](C)CC)[C@@H](C)CC)[C@@H](C)O)C(=O)O | 404 | 8.6 |
| H-IVLSLDVPIGLLQILLEQARARAAREQATTNARILARV-OH [HUMAN UROCORTIN 2] | > 1000 | 4.3 |
| CC[C@H](C)[C@H](NC(=O)[C@@H](NC(=O)[C@H](CC(=O)O)NC(=O)[C@H](CC(C)C)NC(=O)[C@H](CC(C)C)NC(=O)[C@H](CC(C)C)NC(=O)[C@H](CCCNC(=N)N)NC(=O)[C@H](CC(N)=O)NC(=O)[C@H](CC(N)=O)NC(=O)[C@H](C)NC(=O)[C@H](C)NC(=O)[C@H](CCC(N)=O)NC(=O)[C@H](CCC(N)=O)NC(=O)[C@H](CCCCN)NC(=O)[C@H](CCC(=O)O)NC(=O)[C@H](CCCCN)NC(=O)[C@H](CCC(=O)O)NC(=O)[C@H](CCC(N)=O)NC(=O)[C@H](CCCCN)NC(=O)[C@H](CCC(=O)O)NC(=O)[C@@H](NC(=O)[C@H](CCC(=O)O)NC(=O)[C@@H](NC(=O)[C@H](CCSC)NC(=O)[C@H](CCCCN)NC(=O)[C@H](CCCNC(=N)N)NC(=O)[C@H](CC(C)C)NC(=O)[C@H](CC(C)C)NC(=O)[C@H](CCC(N)=O)NC(=O)[C@H](CCC(N)=O)NC(=O)[C@@H]1CCCN1C(=O)[C@H](CC(C)C)NC(=O)[C@H](CC(=O)O)NC(=O)[C@@H](NC(=O)[C@H](CO)NC(=O)[C@@H](NC(=O)[C@@H]1CCCN1C(=O)[C@@H]1CCCN1C(=O)CNC(=O)[C@@H]1CCC(=O)N1)[C@@H](C)CC)[C@@H](C)CC)[C@@H](C)CC)[C@@H](C)CC)[C@@H](C)O)C(=O)O | > 1000 | 29.9 |

Stronger by EC50 [1], values ahead:

| EC50 [1] [nM] | EC50 [2] [nM] | Compound |
| --- | --- | --- |
| 265 | 5.5 | CC[C@H](C)[C@H](NC(=O)[C@@H](NC(=O)[C@H](CC(=O)O)NC(=O)[C@H](CC(C)C)NC(=O)[C@H](CC(C)C)NC(=O)[C@H](CC(C)C)NC(=O)[C@H](CCCNC(=N)N)NC(=O)[C@H](CC(N)=O)NC(=O)[C@H](CC(N)=O)NC(=O)[C@H](C)NC(=O)[C@H](C)NC(=O)[C@H](CCC(N)=O)NC(=O)[C@H](CCC(N)=O)NC(=O)[C@H](CCCCN)NC(=O)[C@H](CCC(=O)O)NC(=O)[C@H](CCCCN)NC(=O)[C@H](CCC(=O)O)NC(=O)[C@H](CCC(N)=O)NC(=O)[C@H](CCCCN)NC(=O)[C@H](CCC(=O)O)NC(=O)[C@@H](NC(=O)[C@H](CCC(=O)O)NC(=O)[C@@H](NC(=O)[C@H](CCSC)NC(=O)[C@H](CCCCN)NC(=O)[C@H](CCCNC(=N)N)NC(=O)[C@H](CC(C)C)NC(=O)[C@H](CC(C)C)NC(=O)[C@@H](NC(=O)[C@H](CC(C)C)NC(=O)[C@@H]1CCCN1C(=O)[C@H](CC(C)C)NC(=O)[C@H](CC(=O)O)NC(=O)[C@@H](NC(=O)[C@H](CO)NC(=O)[C@@H](NC(=O)[C@@H]1CCCN1C(=O)[C@@H]1CCCN1C(=O)CNC(=O)[C@@H]1CCC(=O)N1)[C@@H](C)CC)[C@@H](C)CC)C(C)C)[C@@H](C)CC)[C@@H](C)CC)[C@@H](C)O)C(=O)O |
| 112 | 1.8 | CC[C@H](C)[C@H](NC(=O)[C@@H](NC(=O)[C@H](CC(=O)O)NC(=O)[C@H](CC(C)C)NC(=O)[C@H](CC(C)C)NC(=O)[C@H](CC(C)C)NC(=O)[C@H](CCCNC(=N)N)NC(=O)[C@H](CC(N)=O)NC(=O)[C@H](CC(N)=O)NC(=O)[C@H](C)NC(=O)[C@H](C)NC(=O)[C@H](CCC(N)=O)NC(=O)[C@H](CCC(N)=O)NC(=O)[C@H](CCCCN)NC(=O)[C@H](CCC(=O)O)NC(=O)[C@H](CCCCN)NC(=O)[C@H](CCC(=O)O)NC(=O)[C@H](CCC(N)=O)NC(=O)[C@H](CCCCN)NC(=O)[C@H](CCC(=O)O)NC(=O)[C@@H](NC(=O)[C@H](CCC(=O)O)NC(=O)[C@@H](NC(=O)[C@H](CCSC)NC(=O)[C@H](CCCCN)NC(=O)[C@H](CCCNC(=N)N)NC(=O)[C@H](CC(C)C)NC(=O)[C@H](CC(C)C)NC(=O)[C@H](CCC(N)=O)NC(=O)[C@H](Cc1ccccc1)NC(=O)[C@@H]1CCCN1C(=O)[C@H](CC(C)C)NC(=O)[C@H](CC(=O)O)NC(=O)[C@@H](NC(=O)[C@H](CO)NC(=O)[C@@H](NC(=O)[C@@H]1CCCN1C(=O)[C@@H]1CCCN1C(=O)CNC(=O)[C@@H]1CCC(=O)N1)[C@@H](C)CC)[C@@H](C)CC)[C@@H](C)CC)[C@@H](C)CC)[C@@H](C)O)C(=O)O |
| 85 | 5.9 | CC[C@H](C)[C@H](NC(=O)[C@@H](NC(=O)[C@H](CC(=O)O)NC(=O)[C@H](CC(C)C)NC(=O)[C@H](CC(C)C)NC(=O)[C@H](CC(C)C)NC(=O)[C@H](CCCNC(=N)N)NC(=O)[C@H](CC(N)=O)NC(=O)[C@H](CC(N)=O)NC(=O)[C@H](C)NC(=O)[C@H](C)NC(=O)[C@H](CCC(N)=O)NC(=O)[C@H](CCC(N)=O)NC(=O)[C@H](CCCCN)NC(=O)[C@H](CCC(=O)O)NC(=O)[C@H](CCCCN)NC(=O)[C@H](CCC(=O)O)NC(=O)[C@H](CCC(N)=O)NC(=O)[C@H](CCCCN)NC(=O)[C@H](CCC(=O)O)NC(=O)[C@@H](NC(=O)[C@H](CCC(=O)O)NC(=O)[C@@H](NC(=O)[C@H](CCSC)NC(=O)[C@H](CCCCN)NC(=O)[C@H](CCCNC(=N)N)NC(=O)[C@H](CC(C)C)NC(=O)[C@H](CC(C)C)NC(=O)[C@@H](NC(=O)[C@H](Cc1ccccc1)NC(=O)[C@@H]1CCCN1C(=O)[C@H](CC(C)C)NC(=O)[C@H](CC(=O)O)NC(=O)[C@@H](NC(=O)[C@H](CO)NC(=O)[C@@H](NC(=O)[C@@H]1CCCN1C(=O)[C@@H]1CCCN1C(=O)CNC(=O)[C@@H]1CCC(=O)N1)[C@@H](C)CC)[C@@H](C)CC)C(C)C)[C@@H](C)CC)[C@@H](C)CC)[C@@H](C)O)C(=O)O |
